Experimental data reported in patent US20110281957A1, “ENHANCED BIOACTIVE FORMULATIONS OF RESVERATROL” (Lipoprotein Technologies, Inc., priority 2008, published 2011).
Where two headings read alike, the source gives them in different places.

Key:
[1] = Solubility in pH 7.4 Hank's Balanced Salt Solution, LC/MS/MS; format: physicochemical; settings: pH 7.4 buffer, shaken 2 hours, stood overnight at room temperature
Method: The mixtures were shaken for 2 hours using a benchtop vortexer and left to stand overnight at room temperature. […] After vortexing and standing overnight, the resveratrol gel formulation mixture was centrifuged at 14,000 rpm for 10 minutes. The filtrate or supernatant was sampled twice, consecutively, and diluted 10, 100, and 10.000-fold in a mixture of 50:50 assay buffer:acetonitrile prior to analysis. Both mixtures were assayed by LC/MS/MS using electrospray ionization against the standards prepared in a mixture of 50:50 assay buffer:acetonitrile. Standard concentrations ranged from 1.0 μM down to 3.0 nM.

[2] = Visual clarity of the resveratrol/surfactant mixture on addition to water; format: physicochemical; settings: polyoxyl 40 castor oil (macrogoglycerol hydroxystearate) as the surfactant
Method: Water soluble compositions of trans-resveratrol were formulated containing the non-ionic surfactant macrogolglycerol hydroxystearate (polyoxyl 40 castor oil). By heating and stirring this polyoxyl castor oil with a powdered synthetic 99% trans-resveratrol, a clear viscous solution was formed containing dissolved trans-resveratrol (hereinafter referred to as “resveratrol gel formulation”). The resveratrol gel formulation consisted of macrogolglycerol hydroxystearate 40 (50 ml) and powdered trans-resveratrol (3 grams), representing a concentration of 6% for the resveratrol in the surfactant.
The following formulation was prepared as described below: 500 mg of purified resveratrol 99% derived from polygonum cuspidatum (Japanese knotweed) was dissolved in 25 ml of warm macrogoglycerol hydroxystearate until a clear gel was formed. 250 mg of ascorbic acid was added to the clear gel, which was then slowly added to 100 ml of warm water.

[3] = tested on: breast cancer (MCF-7) cells; settings: MCF-7 cells in vitro; cited from earlier work
[4] = tested on: ovarian cancer (A-2780) cells; settings: A-2780 cells in vitro; cited from earlier work
[5] = cited from earlier work
[6] = humans, up to 4 g; cited from earlier work

Oc1ccc(/C=C/c2cc(O)cc(O)c2)cc1 [Powdered Resveratrol, trans-3,5,4′-trihydroxystilbene]
solubility ([1]; Hank's Balanced Salt Solution buffer, pH 7.4, aqueous buffer, thermodynamic from solid, average of 2 replicates, read-out: Solubility AVG): 0.5 µM
solubility ([1]; Hank's Balanced Salt Solution buffer, pH 7.4, aqueous buffer, thermodynamic from solid, replicate 1, read-out: Solubility Rep 1): 0.4 µM
solubility ([1]; Hank's Balanced Salt Solution buffer, pH 7.4, aqueous buffer, thermodynamic from solid, replicate 2, read-out: Solubility Rep 2): 0.61 µM
solubility ([1]; average of 2 replicates, read-out: Solubility AVG): 0.505 µM

Oc1ccc(C=Cc2cc(O)cc(O)c2)cc1 [Resveratrol, 3,5,4′-trihydroxystilbene]
Maximum concentration in surfactant for a crystal-clear solution in water [2]: ≤ 20%
Inhibition of proliferation [3]: inhibited the proliferation
Inhibition of proliferation [4]: inhibited the proliferation
Solubility in water [5]: insoluble in water

O=c1c(O)c(-c2ccc(O)c(O)c2)oc2cc(O)cc(O)c12 [quercetin]
Detection in plasma after oral administration [6]: No quercetin could be found in plasma
